Molecules are shown by their SMILES.
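Further: ALL cell lines in 384-well plates, five doses spanning 10,000-fold, each plate scaled between vehicle and 100 µmol/L benzalkonium chloride controls, sDSS an adapted area-under-curve metric.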

The first assay has as its system MN-60. The assay can be described thus: selective drug sensitivity score (sDSS, relative to normal bone marrow) (sDSS (score)); higher = more potent and effective on the cell line relative to normal bone marrow cells. Conditions: 72 h.
For `CC(=O)[C@]1(O)Cc2c(O)c3c(c(O)c2[C@@H](O[C@H]2C[C@H](N)[C@H](O)[C@H](C)O2)C1)C(=O)c1ccccc1C3=O` [Idarubicin] (top concentration 1000 nM), the “selective drug sensitivity score” value was -2.26.

Take `COc1cc2nccc(Oc3ccc(NC(=O)NC4CC4)c(Cl)c3)c2cc1C(N)=O` [Lenvatinib] (top concentration 2500 nM): the “selective drug sensitivity score” value was -0.24.

Take `N#Cc1ccc(C(c2ccc(C#N)cc2)n2cncn2)cc1` [Letrozole] (top concentration 10000 nM): the “selective drug sensitivity score” value was -0.04.

With `CCNCCS(=O)(=O)NC[C@@]1(c2ccccc2)SC(NC(=O)C(C)(C)C)=NN1C(=O)C(C)(C)C` [Litronesib] (top concentration 1000 nM), the “selective drug sensitivity score” value came to 4.64.

As to `CC[C@H](C)C(=O)O[C@H]1C[C@@H](C)C=C2C=C[C@H](C)[C@H](CC[C@@H]3C[C@@H](O)CC(=O)O3)[C@H]21` [Lovastatin] (top concentration 10000 nM), the “selective drug sensitivity score” value was -0.1.

As for `Cn1cc(-c2cnn3c(N)c(Br)c([C@@H]4CCCNC4)nc23)cn1` [MK-8776] (top concentration 2500 nM), the “selective drug sensitivity score” value is -1.46.

As to `Cc1cnc(-c2ccccc2C(C)C)nc1NCc1ccc(-n2ccnn2)cc1` [ML323] (top concentration 10000 nM), the “selective drug sensitivity score” value worked out at 0.04.

`O=C(CCNC(=O)c1ccc(OC(F)(F)F)cc1)N[C@@H]1CCCc2ccccc21` [ML390] (top concentration 50000 nM): the “selective drug sensitivity score” value was 16.8.

`CN(C)C(=N)NC(=N)N` [Metformin] (top concentration 100000 nM): the “selective drug sensitivity score” value was -0.02.

Take `C[C@H]1C[C@@H]2[C@H]([C@@H](O)C[C@@]3(C)[C@H]2CC[C@]3(O)C(=O)CO)[C@@]2(C)C=CC(=O)C=C12` [Methylprednisolone] (top concentration 10000 nM): the “selective drug sensitivity score” value is -1.5.

In the case of `FC(F)(F)c1ccc(/C=C/c2nc(COc3ccc(CCCCn4ccnn4)cc3)co2)cc1` [Mubritinib] (top concentration 1000 nM), the “selective drug sensitivity score” value was 17.6.

`COc1cc2c(cc1OC(C)C)[C@H](c1ccc(Cl)cc1)N(c1ccc(N(C)C[C@H]3CC[C@H](N4CCN(C)C(=O)C4)CC3)cc1)C(=O)C2` [NVP-CGM097] (top concentration 25000 nM): the “selective drug sensitivity score” value is -0.44.

Take `CCOc1cc2ncc(C#N)c(Nc3ccc(OCc4ccccn4)c(Cl)c3)c2cc1NC(=O)/C=C/CN(C)C` [Neratinib] (top concentration 1000 nM): the “selective drug sensitivity score” value worked out at 0.38.

Take `COc1ncc(-c2ccc3nccc(-c4ccnnc4)c3c2)cc1NS(=O)(=O)c1ccc(F)cc1F` [Omipalisib] (top concentration 1000 nM): the “selective drug sensitivity score” value amounted to 8.9.

Regarding `CN1CCN(c2cc(C(=O)Nc3ccc4c(c3)-c3c(c(C(N)=O)nn3-c3ccc(F)cc3)CC4)c(Cl)cn2)CC1` [PHA-408] (top concentration 10000 nM), the “selective drug sensitivity score” value was -4.12.

Consider `OC[C@H]1O[C@@H](n2cnc3c2N=CNC[C@H]3O)C[C@@H]1O` [Pentostatin] (top concentration 10000 nM), for which the “selective drug sensitivity score” value was -0.44.

Take `CC(C)N(C[C@H]1O[C@@H](n2cnc3c(N)ncnc32)[C@H](O)[C@@H]1O)[C@H]1C[C@@H](CCc2nc3cc(C(C)(C)C)ccc3[nH]2)C1` [Pinometostat] (top concentration 1000 nM): the “selective drug sensitivity score” value amounted to 0.3.

As to `Cc1ccc(=O)n(-c2ccccc2)c1` [Pirfenidone] (top concentration 10000 nM), the “selective drug sensitivity score” value stood at 0.

A further assay has as its system MOLT-16. Described as above. Conditions: 72 h.
With `CC(=O)[C@]1(O)Cc2c(O)c3c(c(O)c2[C@@H](O[C@H]2C[C@H](N)[C@H](O)[C@H](C)O2)C1)C(=O)c1ccccc1C3=O` [Idarubicin] (top concentration 1000 nM), the “selective drug sensitivity score” value was 15.9.

`COc1cc2nccc(Oc3ccc(NC(=O)NC4CC4)c(Cl)c3)c2cc1C(N)=O` [Lenvatinib] (top concentration 2500 nM): the “selective drug sensitivity score” value was -0.04.

In the case of `N#Cc1ccc(C(c2ccc(C#N)cc2)n2cncn2)cc1` [Letrozole] (top concentration 10000 nM), the “selective drug sensitivity score” value was -0.04.

For `CCNCCS(=O)(=O)NC[C@@]1(c2ccccc2)SC(NC(=O)C(C)(C)C)=NN1C(=O)C(C)(C)C` [Litronesib] (top concentration 1000 nM), the “selective drug sensitivity score” value worked out at 20.2.

Turning to `CC[C@H](C)C(=O)O[C@H]1C[C@@H](C)C=C2C=C[C@H](C)[C@H](CC[C@@H]3C[C@@H](O)CC(=O)O3)[C@H]21` [Lovastatin] (top concentration 10000 nM), the “selective drug sensitivity score” value was 1.7.

With `Cn1cc(-c2cnn3c(N)c(Br)c([C@@H]4CCCNC4)nc23)cn1` [MK-8776] (top concentration 2500 nM), the “selective drug sensitivity score” value was 1.44.

With `Cc1cnc(-c2ccccc2C(C)C)nc1NCc1ccc(-n2ccnn2)cc1` [ML323] (top concentration 10000 nM), the “selective drug sensitivity score” value worked out at 3.04.

`O=C(CCNC(=O)c1ccc(OC(F)(F)F)cc1)N[C@@H]1CCCc2ccccc21` [ML390] (top concentration 50000 nM): the “selective drug sensitivity score” value came to 20.8.

`CN(C)C(=N)NC(=N)N` [Metformin] (top concentration 100000 nM): the “selective drug sensitivity score” value is -0.02.

For `C[C@H]1C[C@@H]2[C@H]([C@@H](O)C[C@@]3(C)[C@H]2CC[C@]3(O)C(=O)CO)[C@@]2(C)C=CC(=O)C=C12` [Methylprednisolone] (top concentration 10000 nM), the “selective drug sensitivity score” value worked out at 7.9.

For the molecule `FC(F)(F)c1ccc(/C=C/c2nc(COc3ccc(CCCCn4ccnn4)cc3)co2)cc1` [Mubritinib] (top concentration 1000 nM), the “selective drug sensitivity score” value was 18.6.

`COc1cc2c(cc1OC(C)C)[C@H](c1ccc(Cl)cc1)N(c1ccc(N(C)C[C@H]3CC[C@H](N4CCN(C)C(=O)C4)CC3)cc1)C(=O)C2` [NVP-CGM097] (top concentration 25000 nM): the “selective drug sensitivity score” value worked out at 10.4.

For `CCOc1cc2ncc(C#N)c(Nc3ccc(OCc4ccccn4)c(Cl)c3)c2cc1NC(=O)/C=C/CN(C)C` [Neratinib] (top concentration 1000 nM), the “selective drug sensitivity score” value was found to be 1.98.

For the molecule `COc1ncc(-c2ccc3nccc(-c4ccnnc4)c3c2)cc1NS(=O)(=O)c1ccc(F)cc1F` [Omipalisib] (top concentration 1000 nM), the “selective drug sensitivity score” value is 10.

As to `CN1CCN(c2cc(C(=O)Nc3ccc4c(c3)-c3c(c(C(N)=O)nn3-c3ccc(F)cc3)CC4)c(Cl)cn2)CC1` [PHA-408] (top concentration 10000 nM), the “selective drug sensitivity score” value was determined as 1.28.

Turning to `OC[C@H]1O[C@@H](n2cnc3c2N=CNC[C@H]3O)C[C@@H]1O` [Pentostatin] (top concentration 10000 nM), the “selective drug sensitivity score” value was -0.34.

Regarding `CC(C)N(C[C@H]1O[C@@H](n2cnc3c(N)ncnc32)[C@H](O)[C@@H]1O)[C@H]1C[C@@H](CCc2nc3cc(C(C)(C)C)ccc3[nH]2)C1` [Pinometostat] (top concentration 1000 nM), the “selective drug sensitivity score” value was 0.

For the molecule `Cc1ccc(=O)n(-c2ccccc2)c1` [Pirfenidone] (top concentration 10000 nM), the “selective drug sensitivity score” value turned out to be 0.

The next assay has as its system NALL-1. Described as above. Conditions: 72 h.
On to `CC(=O)[C@]1(O)Cc2c(O)c3c(c(O)c2[C@@H](O[C@H]2C[C@H](N)[C@H](O)[C@H](C)O2)C1)C(=O)c1ccccc1C3=O` [Idarubicin] (top concentration 1000 nM), for which the “selective drug sensitivity score” value was -3.66.

For `COc1cc2nccc(Oc3ccc(NC(=O)NC4CC4)c(Cl)c3)c2cc1C(N)=O` [Lenvatinib] (top concentration 2500 nM), the “selective drug sensitivity score” value is -0.24.

Take `N#Cc1ccc(C(c2ccc(C#N)cc2)n2cncn2)cc1` [Letrozole] (top concentration 10000 nM): the “selective drug sensitivity score” value was -0.04.

On to `CCNCCS(=O)(=O)NC[C@@]1(c2ccccc2)SC(NC(=O)C(C)(C)C)=NN1C(=O)C(C)(C)C` [Litronesib] (top concentration 1000 nM), for which the “selective drug sensitivity score” value came to 10.9.

With `CC[C@H](C)C(=O)O[C@H]1C[C@@H](C)C=C2C=C[C@H](C)[C@H](CC[C@@H]3C[C@@H](O)CC(=O)O3)[C@H]21` [Lovastatin] (top concentration 10000 nM), the “selective drug sensitivity score” value was -0.1.

For the molecule `Cn1cc(-c2cnn3c(N)c(Br)c([C@@H]4CCCNC4)nc23)cn1` [MK-8776] (top concentration 2500 nM), the “selective drug sensitivity score” value is -1.46.

As for `Cc1cnc(-c2ccccc2C(C)C)nc1NCc1ccc(-n2ccnn2)cc1` [ML323] (top concentration 10000 nM), the “selective drug sensitivity score” value is 0.14.

`O=C(CCNC(=O)c1ccc(OC(F)(F)F)cc1)N[C@@H]1CCCc2ccccc21` [ML390] (top concentration 50000 nM): the “selective drug sensitivity score” value was -1.2.

For `CN(C)C(=N)NC(=N)N` [Metformin] (top concentration 100000 nM), the “selective drug sensitivity score” value was -0.02.
